{"source": "patent US8410150B2", "about": "“Inhibitors of carnitine palmitoyltransferase and treating cancer” (University Health Network, priority 2007, dated 2013)", "assay_in_all_cases": "Cell growth inhibition, SRB assay", "type_in_all_cases": "cell-based, human", "key": {"[1]": {"tested_on": "A172", "details": "Brain A172, 3% FBS; read-out: GI50", "procedure": "(§1) Human cancer cells (MCF-7, H358, H460, HCT116 p53^+/+, HCT116 p53^−/−, A172, PC-3, DU-145 and SW626) were maintained in DMEM medium containing 10% Fetal Bovine Serum (FBS) (Invitrogen, Burlington, ON, Canada) and normal cells HMEC, 184A1, NHBE and PrEC were cultured in MEGM, MEGM plus transferring and cholera toxin, BEGM and PrEGM supplemented with various growth factors (Cambrex, Charles city, IA, USA), respectively.\n(§2) Compounds were dissolved in DMSO and further diluted in cell culture medium for the experiments performed. Cells were seeded into 96-well plates with 1,500-5,000 cells/well according to cell growth rate. After 24 h, DMEM medium containing 10% FBS were changed to DMEM containing 3% FBS for cancer cells and additional 3% FBS were added into the culture medium for normal cells. The compound was added into the cell culture at the indicated concentrations, and the final concentration of DMSO was adjusted to a final concentration of 0.1%. Cells were subjected to either normoxic condition (20% O2) for 6 days or hypoxic condition (0.2% O2) for 2 days and then transferred to normoxic condition for 4 days. Cell viability was assessed by Sulforhodamine B (SRB) assay at Day 6.\n(§3) Sulforhodamine B (SRB) (Sigma, Oakville, ON, Canada) is a water-soluble dye that binds to the basic amino acids of the cellular proteins. Thus, colorimetric measurement of the bound dye provides an estimate of the total protein mass that is related to the cell number. The cells were fixed in situ by gently aspirating off the culture media and adding 50 ul of cold 10% trichloroacetic Acid (TCA) per well and incubated at 4° C. for 30-60 min. The plates were washed five times with water and allowed to air dry for 5 min. 50 ul of 0.4% (w/v) SRB dissolved in 1% (v/v) acetic acid were added into each well, plates were then incubated at RT for 30 min for staining, washed four times with 1% acetic acid to remove any unbound dye and then allowed to air dry for 5 min. Stain was solubilized with 100 ul of 10 mM Tris pH 10.5 per well. Absorbance was read at 570 nm on a spectrophotometer. GI50 (compound concentration required for 50% of growth inhibition) was calculated using GraphPad Prism 4.0 software (GraphPad Software, Inc., San Diego, Calif., USA).\n(§4) Cell viability of various cell lines treated with 3-carboxy-N,N,N-trimethyl-2-pentadecanamidopropan-1-aminium (“nPAC”) and compound of Examples S7, S63, S66, S90, S89, S67, S75 and S10 was also assessed in a manner as described above in Example 5."}, "[2]": {"tested_on": "H358", "details": "Lung H358, 3% FBS; read-out: GI50", "procedure": "as §1, §2, §3, §4"}, "[3]": {"tested_on": "MCF-7", "details": "Breast MCF-7, 3% FBS; read-out: GI50", "procedure": "as §1, §2, §3, §4"}, "[4]": {"tested_on": "PC-3", "details": "Prostate PC-3, 3% FBS; read-out: GI50", "procedure": "as §1, §2, §3, §4"}, "[5]": {"tested_on": "SW626", "details": "Ovarian SW626, 3% FBS; read-out: GI50", "procedure": "as §1, §2, §3, §4"}, "[6]": {"tested_on": "A54", "details": "Lung A54, 3% FBS", "procedure": "as §2, §3, §4"}, "[7]": {"tested_on": "COLO-205", "details": "Colon COLO-205, 3% FBS", "procedure": "as §2, §3, §4"}, "[8]": {"tested_on": "Caov-3", "details": "Ovarian Caov-3, 3% FBS", "procedure": "as §2, §3, §4"}, "[9]": {"tested_on": "HCT-15", "details": "Colon HCT-15, 3% FBS", "procedure": "as §2, §3, §4"}, "[10]": {"tested_on": "Hs578T", "details": "Breast Hs578T, 3% FBS", "procedure": "as §2, §3, §4"}, "[11]": {"tested_on": "MDA-231", "details": "Breast MDA-231, 3% FBS", "procedure": "as §2, §3, §4"}, "[12]": {"tested_on": "SW480", "details": "Colon SW480, 3% FBS", "procedure": "as §2, §3, §4"}, "[13]": {"tested_on": "SW620", "details": "Colon SW620, 3% FBS", "procedure": "as §2, §3, §4"}}}
{"substance": "3-carboxy-N,N,N-trimethyl-2-pentadecanamidopropan-1-aminium [nPAC, reference compound]", "values": [{"measurement": "GI50", "setting": "[1]", "value": 3200, "unit": "nM"}, {"measurement": "GI50", "setting": "[2]", "value": 700, "unit": "nM"}, {"measurement": "GI50", "setting": "[3]", "value": 6600, "unit": "nM"}, {"measurement": "GI50", "setting": "[4]", "value": 2500, "unit": "nM"}, {"measurement": "GI50", "setting": "[5]", "value": 1200, "unit": "nM"}, {"measurement": "GI50", "setting": "[6]", "value": 20000, "unit": "nM"}, {"measurement": "GI50", "setting": "[7]", "value": 400, "unit": "nM"}, {"measurement": "GI50", "setting": "[8]", "value": 1300, "unit": "nM"}, {"measurement": "GI50", "setting": "[9]", "value": 1500, "unit": "nM"}, {"measurement": "GI50", "setting": "[10]", "value": 19000, "unit": "nM"}, {"measurement": "GI50", "setting": "[11]", "value": 10000, "unit": "nM"}, {"measurement": "GI50", "setting": "[12]", "value": 400, "unit": "nM"}, {"measurement": "GI50", "setting": "[13]", "value": 500, "unit": "nM"}]}
